Holding throughout (assay): inhibition of tumour cell growth, NCI panel, 48 h
The subject of experiment [1] is U-251.
In experiment [2] the test system is M14.
Experiment [3] deals with 786-0.
In experiment [4] the test system is SK-OV-3.
Experiment [5] relates to RPMI-8226.
Experiment [6] concerns HL-60.
In experiment [7] the test system is CCRF-CEM.
The test system of experiment [8] is SN12C.
Experiment [9] has as its system SF-295.
The subject of experiment [10] is CAKI-1.
Experiment [11] deals with SK-MEL-28.
In experiment [12] the test system is UACC-62.
Experiment [13] has as its system TK-10.
For experiment [14], the system named is SW-620.
Experiment [15] has as its system SF-268.
Experiment [16] has as its system UACC-257.
Experiment [17] has as its system MCF7.
The subject of experiment [18] is MDA-N.
Experiment [19] concerns Hs-578T.
The subject of experiment [20] is MDA-MB-231.

The structures appear in SMILES notation.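 Five compound concentrations were applied to cells in 96-well plates for 48 hours; endpoints were derived by simple linear interpolation of the resulting dose-response curve. Here, GI50 denotes the concentration required for 50% inhibition of growth.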 Active and inactive are the calls of the source. No stated cut-off is given here; in the data, active = GI50 up to about 1.1 µM and inactive = higher.

Take `COC(=O)/C=C\C(C#N)(C#N)/N=C/c1ccc(Br)cc1`: the GI50 is 13.6 µM (inactive) in [1]; 7.26 µM (inactive) in experiment [2]; 1.02 µM (active) in experiment [3]; 18.8 µM (inactive) in experiment [4]; 2.38 µM (inactive) in experiment [5]; 0.0389 µM (active) in experiment [6]. In addition, the GI50 is 1.54 µM (inactive) in [7]; 5.42 µM (inactive) in experiment [8]; 18.2 µM (inactive) in experiment [9]; 2.66 µM (inactive) in [10]; 15.4 µM (inactive) in experiment [11]; 11.3 µM (inactive) in experiment [12]. The GI50 in [13] was 2.45 µM (inactive); in [14] it was 2.76 µM (inactive); in [15] it was 15.5 µM (inactive); in [16] it was 14.8 µM (inactive); in [17], 3.52 µM (inactive); in experiment [18] it was 5.71 µM (inactive). Besides, the results for the GI50 in experiment [19] and in experiment [20] were 17.6 µM (inactive) and 4.08 µM (inactive), respectively.
On to `Cn1c(N/N=C/c2ccccc2)nc(-c2ccc([N+](=O)[O-])cc2)c(C#N)c1=O`, for which the GI50 in [1] was 66.1 µM (inactive); in experiment [2], > 100 µM (inactive); in [3] it was 91.8 µM (inactive); in [4], > 100 µM (inactive); in experiment [5] it was 17.7 µM (inactive); in experiment [6] it was 11 µM (inactive). The GI50 was 26 µM (inactive) in experiment [7]; 47.2 µM (inactive) in experiment [8]; 50.1 µM (inactive) in experiment [9]; 54.5 µM (inactive) in [10]; > 100 µM (inactive) in experiment [11]; 27.9 µM (inactive) in experiment [12]. Moreover, the GI50 in experiment [13] was 55 µM (inactive); in experiment [14] it was 65.8 µM (inactive); in experiment [15] it was 39.7 µM (inactive); in experiment [16], 50 µM (inactive); in [17] it was 13.1 µM (inactive); in experiment [18], 89.3 µM (inactive). Besides, the GI50 is 55.1 µM (inactive) in experiment [19] and 19.5 µM (inactive) in experiment [20].
`O=C(O)C1C2C=CC(O2)C1C(=O)NCc1ccncc1` (stereo not given): the GI50 in [1], in experiment [2], in experiment [3], in [4], in experiment [5] and in [6] was > 100 µM (inactive) each time. Further, the GI50 in experiment [7], in experiment [8], in [9], in [10], in experiment [11] and in [12] was > 100 µM (inactive) in each case. The GI50 in experiment [13], in [14], in experiment [15], in experiment [16], in experiment [17] and in experiment [18] was > 100 µM (inactive) throughout. The GI50 in [19] and in [20] was > 100 µM (inactive) throughout.
Take `COc1cc(=O)oc(/C=C/C=C/C=C/C(C)=C\C2(C)OC(C)C(C)(O)C2O)c1C` (stereo not given): the GI50 in experiment [1], in [2], in experiment [3], in experiment [4], in [5] and in experiment [6] was > 100 µM (inactive) in each case. Also, the GI50 in experiment [7], in experiment [8], in experiment [9], in experiment [10], in experiment [11] and in experiment [12] was > 100 µM (inactive) in each case. For the same compound, the GI50 in experiment [13], in experiment [14], in experiment [15], in experiment [16], in experiment [17] and in experiment [18] was > 100 µM (inactive) each time. The GI50 was 0.923 µM (active) in [19] and > 100 µM (inactive) in experiment [20].
Turning to `O=C1/C(=C\c2cccs2)Oc2ccccc21`, the GI50 in experiment [1] is 51.6 µM (inactive); in experiment [2] it was 84.5 µM (inactive); in experiment [3], 77.6 µM (inactive); in experiment [4], 38 µM (inactive); in experiment [5] it was 69.5 µM (inactive); in [6] it was 49.8 µM (inactive). The GI50 is 57.7 µM (inactive) in [7]; > 100 µM (inactive) in [8]; 74 µM (inactive) in experiment [9]; 33.6 µM (inactive) in experiment [10]; > 100 µM (inactive) in [11]; 75.2 µM (inactive) in experiment [12]. Besides, the GI50 in experiment [13] was 90.6 µM (inactive); in experiment [14], > 100 µM (inactive); in experiment [15], 51.1 µM (inactive); in [16] it was 63.1 µM (inactive); in experiment [17], 28.9 µM (inactive); in experiment [18] it was > 100 µM (inactive). The GI50 was 45.7 µM (inactive) in [19] and 71.1 µM (inactive) in experiment [20].
For `CC(CCOc1ccc2ccc(=O)oc2c1)C1=CC(=O)C(C)(C)O1` (stereo not given), the GI50 in [1] was 2.69 µM (inactive); in [2], 3.92 µM (inactive); in experiment [3] it was 2.2 µM (inactive); in [4], 3.53 µM (inactive); in experiment [5], 1.95 µM (inactive); in experiment [6], 1.85 µM (inactive). Moreover, the GI50 in [7] was 0.499 µM (active); in experiment [8] it was 1.67 µM (inactive); in experiment [9], 3.94 µM (inactive); in experiment [10] it was 2.86 µM (inactive); in [11], 2.9 µM (inactive); in [12], 3.72 µM (inactive). Moreover, the GI50 is 3.34 µM (inactive) in experiment [13]; 1.92 µM (inactive) in [14]; 1.71 µM (inactive) in [15]; 6.73 µM (inactive) in experiment [16]; 3.61 µM (inactive) in experiment [17]; 2.77 µM (inactive) in experiment [18]. Further, the GI50 in [19] is 2.38 µM (inactive); in experiment [20], 3.15 µM (inactive).
Take `Cc1ccc2[nH]c(=N/c3ccccc3C)/c(=N\c3ccccc3C)[nH]c2c1`: the GI50 in experiment [1] was 26.1 µM (inactive); in experiment [2] it was 43.8 µM (inactive); in experiment [3] it was 30 µM (inactive); in experiment [4] it was 43 µM (inactive); in experiment [5], > 100 µM (inactive); in [6] it was 46.2 µM (inactive). The GI50 in experiment [7] is > 46.8 µM (inactive); in experiment [8], 32.7 µM (inactive); in [9], 21.4 µM (inactive); in experiment [10], 27.9 µM (inactive); in [11] it was 64.4 µM (inactive); in experiment [12] it was 26.3 µM (inactive). In addition, the GI50 in [13] is 38.5 µM (inactive); in experiment [14], 32.3 µM (inactive); in experiment [15], 48.1 µM (inactive); in experiment [16], 25.6 µM (inactive); in experiment [17], 77.3 µM (inactive); in experiment [18] it was 25.5 µM (inactive). Moreover, the GI50 is 24.1 µM (inactive) in [19] and 17.1 µM (inactive) in [20].

These data come from ChEMBL document CHEMBL1201862, “PubChem BioAssay data set” (2004).
